Publication PMC10276812, “Cannabidiol inhibits Nav channels through two distinct binding sites” (Nature Communications, 2023)

What was measured:
Assay type in all cases: cell-based
Nav1.7 [1] = target: T1, Nav1.7 (Homo sapiens, UniProt Q15858, F387A); assay: whole-cell patch clamp in transfected HEK293T cells
T1 construct: gene SCN9A

Nav1.7 [2] = target: T2, Nav1.7 (Homo sapiens, UniProt Q15858, N1459A/S1320A); assay: as above
T2 construct: gene SCN9A

Nav1.7 [3] = target: T3, Nav1.7 (Homo sapiens, UniProt Q15858, S1320A); assay: as above
T3 construct: gene SCN9A
T3 sequence (Q15858 whole entry S1320A): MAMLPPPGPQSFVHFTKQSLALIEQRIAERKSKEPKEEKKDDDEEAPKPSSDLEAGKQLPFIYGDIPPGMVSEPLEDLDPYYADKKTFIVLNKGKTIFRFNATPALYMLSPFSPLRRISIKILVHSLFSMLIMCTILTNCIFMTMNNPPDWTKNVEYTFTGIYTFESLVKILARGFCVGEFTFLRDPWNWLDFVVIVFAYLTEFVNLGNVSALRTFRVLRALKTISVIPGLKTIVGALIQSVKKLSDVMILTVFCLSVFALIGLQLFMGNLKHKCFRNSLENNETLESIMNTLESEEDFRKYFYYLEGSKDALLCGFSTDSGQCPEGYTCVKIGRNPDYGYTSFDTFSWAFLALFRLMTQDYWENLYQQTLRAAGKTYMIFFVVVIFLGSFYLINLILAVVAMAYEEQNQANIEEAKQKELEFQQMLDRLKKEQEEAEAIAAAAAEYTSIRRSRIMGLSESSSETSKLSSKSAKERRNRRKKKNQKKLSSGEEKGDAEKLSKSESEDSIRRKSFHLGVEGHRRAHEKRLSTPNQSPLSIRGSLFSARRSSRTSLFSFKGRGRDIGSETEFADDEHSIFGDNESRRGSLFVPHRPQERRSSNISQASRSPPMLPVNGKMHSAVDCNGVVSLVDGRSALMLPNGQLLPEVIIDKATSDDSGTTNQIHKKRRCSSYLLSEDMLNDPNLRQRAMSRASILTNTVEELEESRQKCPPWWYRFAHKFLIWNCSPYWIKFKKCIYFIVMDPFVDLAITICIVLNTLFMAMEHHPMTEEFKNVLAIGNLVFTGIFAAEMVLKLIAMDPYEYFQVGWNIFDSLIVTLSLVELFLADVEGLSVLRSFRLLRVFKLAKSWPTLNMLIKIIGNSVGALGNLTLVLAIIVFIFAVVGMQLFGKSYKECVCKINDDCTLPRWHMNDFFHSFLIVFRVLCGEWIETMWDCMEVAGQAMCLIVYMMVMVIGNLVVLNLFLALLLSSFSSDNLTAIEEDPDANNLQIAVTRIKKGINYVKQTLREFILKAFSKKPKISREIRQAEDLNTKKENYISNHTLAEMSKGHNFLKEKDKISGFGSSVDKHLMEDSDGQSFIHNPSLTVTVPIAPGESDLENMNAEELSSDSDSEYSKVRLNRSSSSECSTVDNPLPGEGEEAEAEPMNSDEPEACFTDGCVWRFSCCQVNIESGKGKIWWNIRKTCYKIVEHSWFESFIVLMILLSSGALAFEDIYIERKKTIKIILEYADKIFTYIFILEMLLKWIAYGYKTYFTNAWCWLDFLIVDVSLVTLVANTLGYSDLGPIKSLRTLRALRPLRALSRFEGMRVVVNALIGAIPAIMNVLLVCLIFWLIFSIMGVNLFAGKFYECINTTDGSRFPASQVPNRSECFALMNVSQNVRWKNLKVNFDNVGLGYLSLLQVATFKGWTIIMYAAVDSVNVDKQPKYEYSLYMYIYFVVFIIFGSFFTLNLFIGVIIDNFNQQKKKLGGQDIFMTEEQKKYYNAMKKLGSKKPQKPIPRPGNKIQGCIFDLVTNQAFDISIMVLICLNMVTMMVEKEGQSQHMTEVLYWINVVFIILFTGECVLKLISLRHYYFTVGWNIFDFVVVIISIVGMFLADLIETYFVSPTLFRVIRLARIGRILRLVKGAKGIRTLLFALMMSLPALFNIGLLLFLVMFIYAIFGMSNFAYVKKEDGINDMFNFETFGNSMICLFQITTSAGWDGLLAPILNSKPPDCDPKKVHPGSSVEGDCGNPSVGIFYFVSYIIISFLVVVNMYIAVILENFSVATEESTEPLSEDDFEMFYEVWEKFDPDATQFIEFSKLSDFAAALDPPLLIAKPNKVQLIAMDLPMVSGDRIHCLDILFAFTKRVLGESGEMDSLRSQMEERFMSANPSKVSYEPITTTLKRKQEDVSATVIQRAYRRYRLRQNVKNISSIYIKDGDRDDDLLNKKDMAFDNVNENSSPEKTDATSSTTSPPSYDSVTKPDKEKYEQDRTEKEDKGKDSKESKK

Nav1.7 [4] = target: T4, Nav1.7 (Homo sapiens, UniProt Q15858, N1459A); assay: as above
T4 construct: gene SCN9A
T4 sequence (Q15858 whole entry N1459A): as the sequence (Q15858 whole entry S1320A) above, with A1320S, N1459A counted along it

Nav1.7 [5] = target: T5, Nav1.7 (Homo sapiens, UniProt Q15858); assay: cryo-EM structure at […] Å; Kd for the inactivated state calculated from patch-clamp (alpha subunit alone)
T5 construct: gene SCN9A; no beta subunit stated for this line
T5 sequence (Q15858 whole entry): as the sequence (Q15858 whole entry S1320A) above, with A1320S counted along it

Nav1.7 [6] = target: T6, Nav1.7 (Homo sapiens, UniProt Q15858, V383A); assay: whole-cell patch clamp in transfected HEK293T cells
T6 construct: gene SCN9A
T6 sequence (Q15858 whole entry V383A): as the sequence (Q15858 whole entry S1320A) above, with V383A, A1320S counted along it

T1 sequence (Q15858 whole entry F387A): as the sequence (Q15858 whole entry S1320A) above, with F387A, A1320S counted along it
T2 sequence (Q15858 whole entry S1320A/N1459A): as the sequence (Q15858 whole entry S1320A) above, with N1459A counted along it

`C=C(C)[C@@H]1CCC(C)=C[C@H]1c1c(O)cc(CCCCC)cc1O` [CBD, Cannabidiol] gave an IC50 (Nav1.7 [1]) of 3.65 ± 0.78 µM, an IC50 (Nav1.7 [2]) of 4.28 ± 0.67 µM and an IC50 (Nav1.7 [3]) of 3.81 ± 0.42 µM. For the same compound, the IC50 (Nav1.7 [4]) was 2.46 ± 0.28 µM, the Kd (Nav1.7 [5]) was about 0.05 µM and the IC50 (Nav1.7 [6]) was 3.56 ± 0.58 µM.
